# In patent publication US8962641B2, “Pyrimidine-substituted pyrrolidine derivatives, pharmaceutical compositions and uses thereof” (Boehringer Ingelheim International GmbH, priority 2013, dated 2015):
# Target: human ACC2 (Homo sapiens (Human), UniProt O00763)
# Test: ACC2 assay (spectrophotometric 384 well assay, NADH-linked kinetic method)
# Format: biochemical
# Conditions: hACC2 construct lacking 128 N-terminal amino acids; coupled lactate dehydrogenase/pyruvate kinase reaction, 340 nm, 25° C.
# Procedure, shortened: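 Baculovirus/insect-cell human ACC2, anion-exchange purified; ADP formation coupled to pyruvate kinase/lactate dehydrogenase, NADH loss followed at 340 nm, 25° C, 15 min. Final 200 μM NADH and acetyl-CoA, 500 uM ATP; vehicle and no-acetyl-CoA wells set 100% and 0%.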
# Chain of human ACC2 (O00763 129-2458): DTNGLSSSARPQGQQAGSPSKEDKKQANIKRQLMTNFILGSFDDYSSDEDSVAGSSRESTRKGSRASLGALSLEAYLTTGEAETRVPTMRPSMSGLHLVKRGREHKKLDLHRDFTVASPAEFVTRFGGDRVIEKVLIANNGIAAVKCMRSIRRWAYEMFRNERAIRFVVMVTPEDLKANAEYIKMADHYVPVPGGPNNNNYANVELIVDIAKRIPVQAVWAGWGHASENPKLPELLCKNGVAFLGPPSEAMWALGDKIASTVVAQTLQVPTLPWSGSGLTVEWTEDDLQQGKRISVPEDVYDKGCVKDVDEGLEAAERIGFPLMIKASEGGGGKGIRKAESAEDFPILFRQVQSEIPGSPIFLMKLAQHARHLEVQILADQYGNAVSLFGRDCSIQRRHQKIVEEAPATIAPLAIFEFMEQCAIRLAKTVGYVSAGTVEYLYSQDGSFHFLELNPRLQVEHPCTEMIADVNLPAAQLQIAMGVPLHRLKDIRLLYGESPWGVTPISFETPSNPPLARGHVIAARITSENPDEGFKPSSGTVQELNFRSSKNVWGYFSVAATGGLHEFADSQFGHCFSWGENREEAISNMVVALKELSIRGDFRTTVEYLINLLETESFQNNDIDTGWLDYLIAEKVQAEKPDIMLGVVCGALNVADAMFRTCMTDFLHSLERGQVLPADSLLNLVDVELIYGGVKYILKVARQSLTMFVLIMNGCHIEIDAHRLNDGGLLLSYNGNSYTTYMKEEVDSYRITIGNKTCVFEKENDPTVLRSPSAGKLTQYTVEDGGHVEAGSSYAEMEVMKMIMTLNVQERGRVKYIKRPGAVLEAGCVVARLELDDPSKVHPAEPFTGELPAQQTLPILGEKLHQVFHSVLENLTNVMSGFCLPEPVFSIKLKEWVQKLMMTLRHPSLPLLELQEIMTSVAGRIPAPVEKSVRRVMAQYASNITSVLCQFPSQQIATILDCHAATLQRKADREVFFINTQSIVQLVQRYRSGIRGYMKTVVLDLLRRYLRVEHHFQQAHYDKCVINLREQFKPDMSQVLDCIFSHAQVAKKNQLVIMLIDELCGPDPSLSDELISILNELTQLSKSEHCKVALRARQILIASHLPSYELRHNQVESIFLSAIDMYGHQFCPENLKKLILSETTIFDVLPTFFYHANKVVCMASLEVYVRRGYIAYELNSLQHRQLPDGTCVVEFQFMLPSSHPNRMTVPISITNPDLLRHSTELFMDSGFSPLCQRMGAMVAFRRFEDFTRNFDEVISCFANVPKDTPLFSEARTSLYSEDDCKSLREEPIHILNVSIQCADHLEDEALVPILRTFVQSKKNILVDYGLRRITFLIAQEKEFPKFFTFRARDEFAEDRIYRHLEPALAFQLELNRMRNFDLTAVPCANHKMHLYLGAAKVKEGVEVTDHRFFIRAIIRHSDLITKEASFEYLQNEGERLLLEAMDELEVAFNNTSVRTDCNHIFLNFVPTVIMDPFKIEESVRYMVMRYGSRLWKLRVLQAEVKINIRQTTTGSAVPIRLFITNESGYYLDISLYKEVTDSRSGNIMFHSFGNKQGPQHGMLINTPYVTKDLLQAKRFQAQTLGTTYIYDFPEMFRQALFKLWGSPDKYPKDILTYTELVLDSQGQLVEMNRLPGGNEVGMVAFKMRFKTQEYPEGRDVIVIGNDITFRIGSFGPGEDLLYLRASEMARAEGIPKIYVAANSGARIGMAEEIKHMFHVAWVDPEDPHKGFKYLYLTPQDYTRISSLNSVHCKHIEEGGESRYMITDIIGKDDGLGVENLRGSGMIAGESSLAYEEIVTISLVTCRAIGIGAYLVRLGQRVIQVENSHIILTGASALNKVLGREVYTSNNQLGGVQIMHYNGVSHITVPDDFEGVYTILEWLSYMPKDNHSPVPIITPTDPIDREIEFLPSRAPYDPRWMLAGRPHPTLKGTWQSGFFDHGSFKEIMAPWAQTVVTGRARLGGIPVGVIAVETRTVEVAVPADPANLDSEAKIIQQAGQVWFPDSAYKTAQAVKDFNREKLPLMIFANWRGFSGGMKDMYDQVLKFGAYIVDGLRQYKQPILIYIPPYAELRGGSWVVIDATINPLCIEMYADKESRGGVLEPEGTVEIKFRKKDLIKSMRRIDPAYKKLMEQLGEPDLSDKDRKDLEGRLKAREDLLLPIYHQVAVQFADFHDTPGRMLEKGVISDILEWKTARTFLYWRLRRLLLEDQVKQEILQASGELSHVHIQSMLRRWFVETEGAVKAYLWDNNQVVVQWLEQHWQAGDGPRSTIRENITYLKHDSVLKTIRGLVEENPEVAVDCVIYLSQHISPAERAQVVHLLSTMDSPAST
row,Compound,IC50 [µM]
1,CC(=O)N[C@@H](C)c1ccc(O[C@@H]2CCN(c3nc(N4CC(C)C4)ncc3Cl)C2)cc1 [Example 8.219],0.355
2,CCN(C)c1nccc(N2CCC(Oc3ccc([C@H](C)NC(=O)N(C)C)cc3)C2)n1 (some centres unmarked) [Example 3.9],0.117
3,CCCOc1ccnc(N2CC[C@@H](Oc3ccc([C@H](C)NC(C)=O)cc3)C2)n1 [Example 7.8],2.09
4,CC(=O)N[C@@H](C)c1ccc(O[C@@H]2CCN(c3ncc(OCC(C)C)cn3)C2)cc1 [Example 6.20],0.974
5,CC(=O)N[C@@H](C)c1ccc(O[C@@H]2CCN(c3ccnc(N(C)C4CCCOC4)n3)C2)cc1 (some centres unmarked) [Example 8.180],0.278
6,CC(=O)N[C@@H](C)c1ccc(O[C@@H]2CCN(c3ncnc(NCC4(O)CCC4)c3F)C2)cc1 [Example 8.292],0.359
7,CC(=O)N[C@@H](C)c1ccc(O[C@@H]2CCN(c3nc(OCC(C)C)ncc3F)C2)cc1 [Example 7.14],0.78
8,CC(=O)N[C@@H](C)c1ccc(O[C@@H]2CCN(c3nc(N4C[C@@H]5C[C@H]4CO5)ncc3Cl)C2)cc1 [Example 8.146],0.984
9,CNC(=O)N[C@@H](C)c1ccc(OC2CCN(c3ccnc(N4CCOCC4)n3)C2)cc1 (some centres unmarked) [Example 3.8],0.26
10,CC(=O)N[C@@H](C)c1ccc(O[C@@H]2CCN(c3ncnc(OCC4(C#N)CC4)c3F)C2)cc1 [Example 7.29],0.175
11,CC(=O)N[C@@H](C)c1ccc(O[C@@H]2CCN(c3ncnc(N(C)CCC#N)c3F)C2)cc1 [Example 8.137],0.672
12,C[C@H](NC(=O)c1cn[nH]c1)c1ccc(OC2CCN(c3ccnc(N4CCOCC4)n3)C2)cc1 (some centres unmarked) [Example 2.7],0.455
13,C[C@H](NC(=O)c1cncs1)c1ccc(O[C@@H]2CCN(c3ccnc(C(F)(F)F)n3)C2)cc1 [Example 6.16],0.153
14,COc1c(OCC2CC2)ncnc1N1CC[C@@H](Oc2ccc([C@H](C)NC(C)=O)cc2)C1 [Example 7.59],0.039
15,COC1CCCN(c2ncc(F)c(N3CC[C@@H](Oc4ccc([C@H](C)NC(C)=O)cc4)C3)n2)C1 (some centres unmarked) [Example 8.275],0.183
16,CC(=O)N[C@@H](C)c1ccc(O[C@@H]2CCN(c3ncnc(N(C)C4CCC4)c3F)C2)cc1 [Example 8.232],0.06
17,C[C@H](NC(=O)N1CCC1)c1ccc(OC2CCN(c3ccnc(N4CCOCC4)n3)C2)cc1 (some centres unmarked) [Example 3.4],1.04
18,CC(=O)N[C@@H](C)c1ccc(O[C@@H]2CCN(c3ncnc(N4CCCC4)c3F)C2)cc1 [Example 8.129],0.067
19,CC(=O)N[C@@H](C)c1ccc(O[C@@H]2CCN(c3ccnc(N(C)CC(F)F)n3)C2)cc1 [Example 8.44],0.055
20,CC(=O)N[C@@H](C)c1ccc(O[C@@H]2CCN(c3ncnc(N4CCC5(CC5)C4)c3F)C2)cc1 [Example 8.235],0.045
21,COc1c(OCC(C)(C)O)ncnc1N1CC[C@@H](Oc2ccc([C@H](C)NC(C)=O)cc2)C1 [Example 7.58],0.355
22,COCCN(C)c1ncc(Cl)c(N2CC[C@@H](Oc3ccc([C@H](C)NC(C)=O)cc3)C2)n1 [Example 8.130],0.079
23,CC(=O)N[C@@H](C)c1ccc(O[C@@H]2CCN(c3nc(N(CCO)C4CC4)ncc3Cl)C2)cc1 [Example 8.211],0.506

row,Compound,IC50 [µM]
1,CC(=O)N[C@@H](C)c1ccc(O[C@@H]2CCN(c3ccnc(N4C[C@@H]5CC[C@@H](C4)O5)n3)C2)cc1 [Example 8.277],0.867
2,CC(=O)N[C@@H](C)c1ccc(O[C@@H]2CCN(c3nc(N(C)C4CCOCC4)ncc3F)C2)cc1 [Example 8.157],0.105
3,CC(=O)N[C@@H](C)c1ccc(O[C@@H]2CCN(c3nc(N(C)CC(F)F)ncc3F)C2)cc1 [Example 8.27],0.065
4,CC(=O)N[C@@H](C)c1ccc(O[C@@H]2CCN(c3nccc(C(F)(F)F)n3)C2)cc1 [Example 6.23],1.73
5,CC(=O)N[C@@H](C)c1ccc(O[C@@H]2CCN(c3nc(N4CC[C@H](F)C4)ncc3Cl)C2)cc1 [Example 8.241],0.594
6,CC(=O)N[C@@H](C)c1ccc(O[C@@H]2CCN(c3ncnc(N(C)CC4CCOC4)c3F)C2)cc1 (some centres unmarked) [Example 8.122],0.547
7,CC(=O)N[C@@H](C)c1ccc(O[C@@H]2CCN(c3ccnc(N4CC[C@H](F)C4)n3)C2)cc1 [Example 8.230],0.485
8,COc1c(N2CC[C@@H](Oc3ccc([C@H](C)NC(C)=O)cc3)C2)ncnc1N1CCC(C)(O)C1 (some centres unmarked) [Example 8.295],0.79
9,CCCOc1ncnc(N2CC[C@@H](Oc3ccc([C@H](C)NC(C)=O)cc3)C2)c1C [Example 7.23],0.12
10,CC(=O)N[C@@H](C)c1ccc(O[C@@H]2CCN(c3ncnc(N4CCC(CO)C4)c3F)C2)cc1 (some centres unmarked) [Example 8.201],0.294
11,COC[C@@H]1CCN(c2ncc(Cl)c(N3CC[C@@H](Oc4ccc([C@H](C)NC(C)=O)cc4)C3)n2)C1 [Example 8.188],0.118
12,CC(=O)N[C@@H](C)c1ccc(O[C@@H]2CCN(c3nc(N(C)C4CCCOC4)ncc3Cl)C2)cc1 (some centres unmarked) [Example 8.255],0.303
13,COc1ccc(N(C)c2nccc(N3CC[C@@H](Oc4ccc([C@H](C)NC(C)=O)cc4)C3)n2)cc1 [Example 8.38],1.22
14,COc1c(OCC2CC2)ncnc1N1CC[C@@H](Oc2ccc([C@H](C)NC(=O)c3oc(NC(C)=O)nc3C)cc2)C1 [Example 2.32],0.809
15,CC(=O)N[C@@H](C)c1ccc(O[C@@H]2CCN(c3nc(N4CCCC4)ncc3Cl)C2)cc1 [Example 8.50],0.157
16,CC(=O)N[C@@H](C)c1ccc(O[C@@H]2CCN(c3ncnc(OCCCF)c3F)C2)cc1 [Example 7.31],0.049
17,CC(=O)N[C@@H](C)c1ccc(O[C@@H]2CCN(c3ncnc(NCC(C)(C)O)c3Cl)C2)cc1 [Example 8.296],0.113
18,CCCc1cnc(N2CC[C@@H](Oc3ccc([C@H](C)NC(C)=O)cc3)C2)nc1 [Example 6.25],0.714
19,CC(=O)N[C@@H](C)c1ccc(O[C@@H]2CCN(c3ccnc(N(C)C4CCCC4)n3)C2)cc1 [Example 8.20],0.17
20,CC(=O)N[C@@H](C)c1ccc(O[C@@H]2CCN(c3nc(N(C)CCC(F)(F)F)ncc3Cl)C2)cc1 [Example 8.247],0.11
21,CC(=O)N[C@@H](C)c1ccc(O[C@@H]2CCN(c3nc(N(C)CCC#N)ncc3Cl)C2)cc1 [Example 8.131],0.461
22,"CC(=O)N[C@@H]1CC[C@H](C(=O)N[C@@H](C)c2ccc(O[C@@H]3CCN(c4ncnc(OCC5CC5)c4F)C3)cc2)C1 [Example 10.1, (1S,3R)-3-acetamido-N—((S)-1-(4-((R)-1-(6-(cyclopropylmethoxy)-5-fluoropyrimidin-4-yl)pyrrolidin-3-yloxy)phenyl)ethyl)cyclopentanecarboxamide]",0.235
23,COc1c(OCC2CC2)ncnc1N1CC[C@@H](Oc2ccc([C@H](C)NC(=O)C3(C)CC3)cc2)C1 [Example 2.29],0.204

row,Compound,IC50 [µM]
1,CC(=O)N[C@@H](C)c1ccc(O[C@@H]2CCN(c3ncnc(N4CC(C)C4)c3F)C2)cc1 [Example 8.200],0.354
2,C[C@H](NC(=O)N(C)C)c1ccc(O[C@H]2CCN(c3nc(N4CCC5(CC5)C4)ncc3F)C2)cc1 [Example 3.16],0.104
3,CC(=O)N[C@@H](C)c1ccc(O[C@@H]2CCN(c3nc(N4CC[C@@H](F)C4)ncc3F)C2)cc1 [Example 8.181],0.531
4,CC(=O)N[C@@H](C)c1ccc(O[C@@H]2CCN(c3ncnc(OCC(F)F)c3F)C2)cc1 [Example 7.30],0.153
5,CC(=O)N[C@@H](C)c1ccc(O[C@@H]2CCN(c3ncnc(N4CCOC(C)(C)C4)c3F)C2)cc1 [Example 8.176],0.683
6,C[C@H](NC(=O)C1CC1)c1ccc(O[C@@H]2CCN(c3nc(N4CCOCC4)ncc3F)C2)cc1 [Example 10.5],0.295
7,CCN(CC(F)(F)F)c1nccc(N2CC[C@@H](Oc3ccc([C@H](C)NC(C)=O)cc3)C2)n1 [Example 8.79],0.037
8,C[C@H](NC(=O)c1cncs1)c1ccc(O[C@@H]2CCN(c3ccnc(N(C)CC(F)F)n3)C2)cc1 [Example 8.97],0.079
9,CC(=O)N[C@@H](C)c1ccc(O[C@@H]2CCN(c3ncnc(NC4CCCC4)c3Cl)C2)cc1 [Example 8.308],0.105
10,CC(=O)N[C@@H](C)c1ccc(O[C@@H]2CCN(c3ccnc(N(C)C[C@@H]4CCCO4)n3)C2)cc1 [Example 8.203],0.334
11,CCN(C)c1ncc(C)c(N2CC[C@@H](Oc3ccc([C@H](C)NC(C)=O)cc3)C2)n1 [Example 8.53],0.452
12,CC(=O)N[C@@H](C)c1ccc(O[C@@H]2CCN(c3ncc(OCCC4CC4)cn3)C2)cc1 [Example 6.19],0.449
13,CCC(=O)Nc1nc(C)c(C(=O)N[C@@H](C)c2ccc(O[C@@H]3CCN(c4ncnc(NCC(F)F)c4Cl)C3)cc2)s1 [Example 8.315],0.552
14,CC(=O)N[C@@H](C)c1ccc(O[C@@H]2CCN(c3nc(N(C)C4CCOCC4)ncc3Cl)C2)cc1 [Example 8.221],0.269
15,CC(=O)N[C@@H](C)c1ccc(O[C@@H]2CCN(c3nc(N4CCOCC4C)ncc3Cl)C2)cc1 (some centres unmarked) [Example 8.210],0.714
16,CC(=O)N[C@@H](C)c1ccc(O[C@@H]2CCN(c3nc(N(C)CC(F)(F)F)ncc3F)C2)cc1 [Example 8.30],0.184
17,CC(=O)N[C@@H](C)c1ccc(O[C@@H]2CCN(c3nccc(N4CC5(CCC5)C4)n3)C2)cc1 [Example 8.80],0.955
18,CCCN(C)c1ncc(C#N)c(N2CC[C@@H](Oc3ccc([C@H](C)NC(C)=O)cc3)C2)n1 [Example 8.34],1.08
19,CC(=O)N[C@@H](C)c1ccc(O[C@@H]2CCN(c3ncnc(OCC(C)(F)F)c3Cl)C2)cc1 [Example 7.39],0.06
20,CC(=O)N[C@@H](C)c1ccc(O[C@@H]2CCN(c3ncc(C(C)(C)C)cn3)C2)cc1 [Example 6.24],0.819
21,CC(=O)N[C@@H](C)c1ccc(O[C@@H]2CCN(c3ccnc(N4CCOCC4(C)C)n3)C2)cc1 [Example 8.86],0.67
22,CC(=O)N[C@@H](C)c1ccc(OC2CCN(c3cnc(OCC4CC4)nc3)C2)cc1 (some centres unmarked) [Example 1.3],0.964
